{"source": "patent US4117145A", "about": "“1-Substituted pyrazoles” (Bayer Aktiengesellschaft, priority 1975, dated 1978)", "test_system": "thromb formation (left jugular vein, rats)", "test": "Antithrombotic action: thromb formation in supercooled left jugular vein of rats, thromb weighed 4 hours later", "format": "in vivo, rat", "procedure": "The left jugular vein of rats weighing 170 to 180 g was exposed under ether narcosis and supercooled to -12° C for 2 minutes to stimulate thromb formation. The thromb was isolated from the vein 4 hours later, and was weighed. The test animals were given the test preparation in tragacanth mucilage immediately before supercooling the wall of the blood vessel. As a result, the protective antithrombotic activity was tested in the first 4 hours after stimulating thromb formation.", "data": [{"compound": "Cc1cc(OC(=O)c2ccco2)n(CCOc2ccc3ccccc3c2)n1", "note": "[Example 20, 5-(Furyl-(2)-carbonyloxy)-3-methyl-1-(2-(β-naphthyloxy)-ethyl)-pyrazole]", "values": [{"measurement": "reduction of size of the thrombs", "setting": "after a 4 hour period of action", "result": 61, "unit": "%"}, {"measurement": "Thromb size, mean value", "setting": "rats, 10 mg/kg, administered orally immediately before supercooling, thromb isolated 4 hours later, 12 experiments, control 115 ± 12 (14 experiments)", "result": "45 ± 10", "unit": "µg"}, {"measurement": "Inhibition in %", "setting": "rats, 10 mg/kg, administered orally, versus control animals without active compound", "result": 61, "unit": "%"}]}]}
